Like-named read-outs stand apart in the source and are kept apart here.
Columns and labels:
[1] = Membrane permeation, traditional artificial membrane without hydrophilic pores (Standard); details: artificial membrane without hydrophilic pores (transcellular path); 125 or 250 μM, Tris-buffer pH 7.4, 16 hours
Text: (§1) The combination of these two test systems allows the study of the permeability of a plurality of active ingredients independently of the type of transport which they prefer.

[2] = Membrane permeation, PAMPORE system (hydrophilic pores in the lipid layer); details: hydrophilic pores in the lipid layer (paracellular path); 125 or 250 μM, Tris-buffer pH 7.4, 16 hours
Text: as §1

Varizella zoster = details: cited from earlier work
Epstein-Barr = details: cited from earlier work
CMV = details: in achievable concentrations; cited from earlier work
[3] = cited from earlier work
herpes simplex = details: cited from earlier work
[4] = AIDS, chemotherapy; i.v. administration; cited from earlier work
[5] = tested on: Herpes simplex 1, herpes simplex 2, varicella zoster; details: cited from earlier work

5,11,17,23-tetrasulphonic acid calix[4]arenes
Membrane permeation (%) Standard [1]: <15% | Membrane permeation (%) PAMPORE [2]: 100%

Hexasulphonic acid calix[6]arenes
Membrane permeation (%) Standard [1]: 0% | Membrane permeation (%) PAMPORE [2]: 100%

Tetramethyltetramethyl resorcin[4]arenes
Membrane permeation (%) Standard [1]: <15% | Membrane permeation (%) PAMPORE [2]: 95%

Nc1nc2c(ncn2COCCO)c(=O)[nH]1 [aciclovir]
Effect on post-herpetic neuralgia (Varizella zoster; in vivo): no clear effect | Effect on healing in varizella zoster infections (Varizella zoster; symptoms, lesions, pain): faster healing | Activity against Epstein-Barr (Epstein-Barr): only in vitro | Activity against CMV (CMV): not active | t/2 ([3]; anuria (renal insufficiency)): 18 h | t/2 ([3]; normal renal function): 3 h | Effect in recurring mucocutaneous herpes infections (herpes simplex; chron. suppressive therapy): reduces rate of attack | Effect in mucocutaneous herpes simplex infections (herpes simplex; mucocutaneous herpes simplex infections): overall moderate benefit | Effect in immune suppressed patients [4]: prevents dissemination, faster healing | Activity (order of activity against viruses) [5]: Herpes simplex 1>herpes simplex 2>varicella zoster

Reference: patent US20060083748A1, “Calixarenes for use as excipient for an active substance” (priority 2002, published 2006)
